Source: publication PMC10341549, “Inhibitory Investigations of Acyl-CoA Derivatives against Human Lipoxygenase Isozymes” (International Journal of Molecular Sciences, 2023)

How the values were obtained:
Assay type in all cases: biochemical
h15-LOX-1 [1] = target: T1, h15-LOX-1 (Homo sapiens, UniProt P16050); assay: Substrate activity and kinetic parameters with h15-LOX-1; conditions: acyl-CoAs tested at 70 µM; change in absorbance at 234 nm
T1 construct: His tag; made in house
T1 sequence (P16050 1-662): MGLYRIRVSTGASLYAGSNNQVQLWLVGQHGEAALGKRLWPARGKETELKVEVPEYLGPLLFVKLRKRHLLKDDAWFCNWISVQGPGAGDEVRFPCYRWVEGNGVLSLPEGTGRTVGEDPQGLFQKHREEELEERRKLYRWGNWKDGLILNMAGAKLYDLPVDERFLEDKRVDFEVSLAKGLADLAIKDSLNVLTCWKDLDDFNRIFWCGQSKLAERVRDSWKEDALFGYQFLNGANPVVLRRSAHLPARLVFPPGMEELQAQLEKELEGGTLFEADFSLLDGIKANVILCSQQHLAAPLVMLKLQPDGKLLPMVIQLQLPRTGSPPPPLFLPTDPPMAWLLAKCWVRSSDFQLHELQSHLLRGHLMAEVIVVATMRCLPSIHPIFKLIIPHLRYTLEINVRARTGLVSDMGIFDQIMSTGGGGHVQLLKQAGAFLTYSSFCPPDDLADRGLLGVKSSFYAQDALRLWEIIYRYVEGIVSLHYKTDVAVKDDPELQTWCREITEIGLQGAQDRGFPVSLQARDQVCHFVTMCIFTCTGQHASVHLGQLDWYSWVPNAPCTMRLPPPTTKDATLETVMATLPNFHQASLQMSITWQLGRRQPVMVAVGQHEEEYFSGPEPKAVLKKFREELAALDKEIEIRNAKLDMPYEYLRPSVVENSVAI
Description: Considering that some of these acyl-CoAs could potentially be substrates for LOX isozymes, each acyl-CoA was tested at 70 µM against each LOX isozyme to establish the possibility of catalysis.
The same buffer as used to determine IC50 values for h5-LOX was used for product determination. Turnover was monitored by absorbance at 234 nm.

h12-LOX = target: T2, h12-LOX (Homo sapiens, UniProt P18054); assay: IC50 determination against h12-LOX; conditions: methyl esters; 10 μM AA, pH 8.00; read-out: IC50 h12-LOX (methyl ester unsaturated fatty acids)
T2 construct: His tag; made in house
T2 sequence (P18054 1-663): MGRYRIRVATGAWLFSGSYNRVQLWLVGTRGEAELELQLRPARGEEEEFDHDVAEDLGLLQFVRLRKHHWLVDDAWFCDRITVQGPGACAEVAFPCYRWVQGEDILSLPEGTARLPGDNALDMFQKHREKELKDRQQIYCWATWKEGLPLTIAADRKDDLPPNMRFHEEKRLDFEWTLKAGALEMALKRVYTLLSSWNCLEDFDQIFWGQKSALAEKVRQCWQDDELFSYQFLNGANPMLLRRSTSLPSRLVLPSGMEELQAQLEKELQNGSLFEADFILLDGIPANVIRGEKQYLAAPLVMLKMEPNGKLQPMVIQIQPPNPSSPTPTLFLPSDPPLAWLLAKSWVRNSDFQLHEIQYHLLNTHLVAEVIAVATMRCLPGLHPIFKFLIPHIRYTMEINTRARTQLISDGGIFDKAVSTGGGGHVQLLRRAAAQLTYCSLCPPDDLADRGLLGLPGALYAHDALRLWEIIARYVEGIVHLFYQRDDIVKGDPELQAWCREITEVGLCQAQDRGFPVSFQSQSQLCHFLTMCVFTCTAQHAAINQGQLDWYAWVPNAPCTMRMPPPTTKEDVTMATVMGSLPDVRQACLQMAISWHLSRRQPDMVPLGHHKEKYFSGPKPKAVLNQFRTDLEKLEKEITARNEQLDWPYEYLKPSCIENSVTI
Description: (§1) Overexpression and purification of his-tagged wild-type h12-LOX (Uniprot entry P18054), h15-LOX-1 (Uniprot entry P16050), and h15-LOX-2 (Uniprot entry O15296) were performed using nickel-affinity chromatography. The purity of h12-LOX, h15-LOX-1, and h15-LOX-2 was assessed using SDS gel as greater than 85%, and metal content was assessed with a Finnigan inductively coupled plasma mass spectrometer (ICP-MS, Thermo Fischer Scientific, San Jose, USA) via comparison with iron standard solution. Cobalt-EDTA was used as an internal standard. WT h5-LOX (UniProt entry P09917) was expressed in Rosetta 2 cells (Novagen) transformed with the pET14b-Stable-5-LOX plasmid (a gift from Marcia Newcomer of Louisiana State University) and grown in Terrific Broth containing 34 μg/mL chloramphenicol and 100 μg/mL ampicillin at 37 °C for 3.5 h, then placed at 20 °C for an additional 26 h. Cells were pelleted and resuspended in 50 mM Tris (pH 8.0), 500 mM NaCl, 20 mM imidazole with 1 μM pepstatin, 100 μM PMSF, and DNaseI (Sigma, Kanagawa, Japan). The cells were lysed in a French pressure cell and centrifuged at 40,000× g for 20 min at 4 °C. Saturated ammonium sulfate was added to achieve a final solution of 10% and inverted several times. The lysate was centrifuged at 40,000× g for 10 min at 4 °C. The pellet was discarded, and the supernatant was increased to a final concentration of 50% ammonium sulfate. The supernatant was rotated for 10 min at 4 °C then centrifuged at 40,000× g for 10 min at 4 °C. The pellet was split into 150 mg aliquots. The WT h5-LOX used for the kinetics in this work was not purified due to a dramatic loss in activity and was therefore prepared as an ammonium-sulfate precipitate.
IC50 values for each acyl-CoA were measured against h5-LOX, h12-LOX, h15-LOX-1, and h15-LOX-2. […] The fastest rates over 15 s intervals were recorded. […]

h15-LOX-1 [2] = target: T1, h15-LOX-1; assay: IC50 determination against h15-LOX-1; conditions: 10 μM AA, 25 mM HEPES pH 7.5, 0.01% Triton X-100, 22 °C
Description: as §1
(§2) IC50 values for each acyl-CoA were measured against h5-LOX, h12-LOX, h15-LOX-1, and h15-LOX-2. The reactions were carried out in 25 mM HEPES buffer (pH 8.00), 0.01% Triton X-100, and 10 μM AA for h12-LOX; 25 mM HEPES buffer (pH 7.5), 0.01% Triton X-100, and 10 μM AA for h15-LOX-1 and h15-LOX-2; and 50 mM HEPES buffer (pH 7.5), 100 µM EDTA, 50 mM NaCl, 200 µM ATP, and 10 μM AA for h5-LOX. IC50 reactions were implemented with h15-LOX-1 (0.125 μM), h12-LOX (0.300 μM), h15-LOX-2 (0.5 μM), and h5-LOX (∼600 nM ammonium sulfate salt) at 22 °C in a 1 cm^2 quartz cuvette containing 2 mL of the according buffer and 10 μM AA for no longer than 2 min to avoid any cleavage of the acyl-coenzyme A. Inhibitor concentrations ranging from 50 μM to 0.01 μM were used. All reactions were conducted using a Cary-UV Vis spectrophotometer (Agilent, Santa Clara, CA, USA). The fastest rates over 15 s intervals were recorded. IC50 values were obtained by determining the percent of inhibition of the enzymatic rate at ten inhibitor concentrations and plotting the rate against the inhibitor concentration, followed by a hyperbolic saturation curve fit. The saturation curve fits were performed in duplicate or triplicate, depending on the quality of the data. […] Through HPLC monitoring, we were able to determine a lack of degradation of the fatty acyl-CoAs over the first hour.

h15-LOX-2 = target: T3, h15-LOX-2 (Homo sapiens, UniProt O15296); assay: IC50 determination against h15-LOX-2; conditions: 10 μM AA, 25 mM HEPES pH 7.5, 0.01% Triton X-100, 22 °C
T3 construct: His tag; made in house
T3 sequence (O15296 1-676): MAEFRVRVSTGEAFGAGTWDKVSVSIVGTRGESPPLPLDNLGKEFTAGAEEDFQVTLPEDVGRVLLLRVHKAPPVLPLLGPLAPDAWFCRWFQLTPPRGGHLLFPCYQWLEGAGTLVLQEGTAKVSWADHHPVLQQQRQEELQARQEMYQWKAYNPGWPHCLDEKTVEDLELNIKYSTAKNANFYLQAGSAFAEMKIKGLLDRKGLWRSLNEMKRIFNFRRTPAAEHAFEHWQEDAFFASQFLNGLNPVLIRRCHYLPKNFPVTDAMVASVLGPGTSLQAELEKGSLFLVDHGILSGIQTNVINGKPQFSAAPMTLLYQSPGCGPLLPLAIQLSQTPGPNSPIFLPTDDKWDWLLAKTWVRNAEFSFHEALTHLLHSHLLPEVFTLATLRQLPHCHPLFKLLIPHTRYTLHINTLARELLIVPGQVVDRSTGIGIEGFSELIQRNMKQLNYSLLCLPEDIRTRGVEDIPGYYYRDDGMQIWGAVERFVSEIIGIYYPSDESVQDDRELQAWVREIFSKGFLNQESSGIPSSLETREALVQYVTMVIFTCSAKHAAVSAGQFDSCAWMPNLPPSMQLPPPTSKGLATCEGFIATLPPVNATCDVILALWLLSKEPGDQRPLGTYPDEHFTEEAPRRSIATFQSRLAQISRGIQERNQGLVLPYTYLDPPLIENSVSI
Description: as §1, §2

| IC50 (h12-LOX) | IC50 (h15-LOX-1 [2]) | IC50 (h15-LOX-2) | Compound | Substrate activity with h15-LOX-1 (h15-LOX-1 [1]) |
| --- | --- | --- | --- | --- |
| – | – | – | CCCCC/C=C\C/C=C\C/C=C\C/C=C\CCCC(=O)OC [methyl ester arachidonic acid] | substrates |
| > 200 µM | > 200 µM | > 200 µM | CC/C=C\C/C=C\C/C=C\CCCCCCCCCCCC(=O)OC [methyl 13(Z),16(Z),19(Z)-docosatrienoate, methyl-13(Z),16(Z),19(Z)-docosatrienoate (22:3)] | – |
| > 200 µM | > 200 µM | > 200 µM | CC/C=C\C/C=C\C/C=C\CC/C=C\CCCCCCCC(=O)OC [methyl docosatetraenoate, methyl-9(Z),13(Z),16(Z),19(Z)-docosatetraenoate (22:4)] | – |
| > 200 µM | > 200 µM | > 200 µM | CCCCC/C=C\C/C=C\CCCCCCCCCCCC(=O)OC [methyl-13Z,16Z-docosadienoic, methyl-13Z,16Z-docosadienoic (22:2)] | – |
